Literature values, collected in patent US20030099708A1, “Printing or dispensing a suspension such as three-dimensional printing of dosage forms” (Therics, Inc, priority 2001, published 2003).

Conditions: statement in words, no test described

CC[C@@]1(O)C(=O)OCc2c1cc1n(c2=O)Cc2cc3ccccc3nc2-1 [camptothecin]
solubility in water: substantially insoluble
